What was measured:
[1] = system: PSN-1, MiaPaCa-2 and PancM cells; assay: Clonogenic survival assay, pancreatic cancer cells; format: cell-based
Experimental: PSN-1 cells were plated as single cells, treated with 1 μM VE-821 at different time points in relation to 4 Gy irradiation and assessed for colony formation after 10 days. The survival fraction at 4 Gy for each of the treatment schedules was determined by taking into account the relevant plating efficiency of unirradiated cells. Cells were treated with 1 μM VE-821 4 h after plating and 1 h prior to irradiation. Drug was removed after 72 h and colony-forming ability was assessed after 10 to 21 days. (n=3). *, P<0.05; **, P<0.01 over DMSO-treated control. A) clonogenic survival curves of cells treated with 1 μM VE-821 and irradiation under hypoxic conditions. Plated cells were transferred to hypoxia (0.5% O2) and acclimatised for 6 h. VE-821 (1 μM) was then added at 1 h prior to irradiation and left for 72 h upon which the medium was replaced. Cells were transferred to normoxia at 1 h post-irradiation. B) clonogenic survival of cells after irradiation with 6 Gy and treatment with 1 μM VE-821 in oxic and hypoxic (0.5% O2) conditions, as described above and in FIG. 1 (n=3). *, P<0.05; **, P<0.01; ***, P<0.001 over DMSO-treated control. A) clonogenic survival of cells treated with gemcitabine and 1 μM VE-821. Cells were treated with increasing concentrations of gemcitabine for 24 h followed by 72 h treatment of 1 μM VE-821. Colony forming ability was assessed after 10 to 21 days. B) clonogenic survival of cells treated with gemcitabine in hypoxia. Plated cells were transferred to hypoxia (0.5% O2) and acclimatised for 6 h. Cells were then treated with increasing concentrations of gemcitabine for 24 h followed by 72 h treatment of 1 μM VE-821. Hypoxic cells were transferred to normoxia 1 h after VE-821 addition. C) clonogenic survival after treatment with 20 nM gemcitabine and VE-821 in oxic and hypoxic (0.5% O2) conditions, as described above. D) clonogenic survival of cells treated with gemcitabine and irradiation. PSN-1 and MiaPaCa-2 cells were treated with 5 nM or 10 nM gemcitabine, respectively, for 24 h, medium was then replaced and 1 μM VE-821 was added from 1 h prior to 72 h post 4 Gy irradiation. Colony forming ability was assessed after 10 to 21 days (n=3). *, P<0.05; **, P<0.01; ***, P<0.001 over DMSO-treated control. Logarithmically growing cells were plated in triplicate in 6-well tissue culture dishes under oxic (21% O2) or hypoxic conditions (0.5% O2) using an InVivo2 300 chamber (Ruskinn Technology, UK). […] Cells were incubated for 10-21 days until colonies were stained with 0.5% crystal violet and counted in a CellCount automated colony counter (Oxford Optronix). Clonogenic survival was calculated and data were fitted in the GraphPad Prism 4.0 (GraphPad Software, CA).

[2] = system: primary adenocarcinoma NSCLC xenograft; assay: Primary adenocarcinoma NSCLC xenograft model; format: in vivo, SCID mice; settings: VE-822 60 mg/kg po qd4 with cisplatin 1 or 3 mg/kg ip q7d; FIG. 20
Experimental: Tumor tissue was excised from a patient with a poorly differentiated adenocarcinoma. This tumor tissue was implanted subcutaneously in the flank of a SCID mouse and passaged twice before compound testing. For compound testing passage-two tumor tissue was implanted subcutaneously in the flank of SCID mice and tumors grown to a volume of about 200 mm^3 Cisplatin was dosed alone at either 1 or 3 mg/kg ip, once per week (ip, q7d, on day 2 of each week) for two weeks. VE-822 was dosed as a solution alone at 60 mg/kg po on 4 consecutive days per weekly cycle (qd4, dosed on days 1, 2, 3 and 4 each week). Two combination groups received cisplatin at 1 or 3 mg/kg plus VE-822 at 60 mg/kg po on the same schedule as the single agent group. A control group received vehicle alone (10% Vitamin E TPGS in water, po qd4). All drug treatment was stopped on Day 28. Vehicle, cisplatin (1 mg/kg) and VE-822 (60 mg/kg) groups were sacrificed and the remainder monitored for a further 40 days to assess tumor re-growth.
Data are mean±sem, n=9-10. […]

[3] = system: PSN1 pancreatic cancer xenografts; assay: PSN1 pancreatic cancer xenograft model with gemcitabine; format: in vivo, female nude MF1 mice; settings: VE-822 PO q2d 10, 30 or 60 mg/kg with gemcitabine 15 mg/kg IP q3d; FIG. 21
Experimental: PSN1 cells (1×10^6 cells per mouse) were implanted as a mixture in Matrigel (100 μl per mouse) into the flank of female nude MF1 mice and grown to a volume of about 200 mm^3 prior to compound administration. Gemcitabine was dosed alone at 15 mg/kg ip, once every three days (ip, q3d) in 0.5% methylcellulose in water for a maximum of 10 cycles. VE-822 was dosed, as a suspension in 0.5% methylcellulose in water, alone at either 10, 30 or 60 mg/kg po every other day for 28 days (po q2d). Three combination groups received gemcitabine at 15 mg/kg plus VE-822 either at 10, 30 or at 60 mg/kg po on the same schedule as the single agent groups. A control group received vehicle alone (0.5% methylcellulose ip q3d). All drug treatment was stopped on Day 30. Vehicle and VE-822 groups were sacrificed on day 13 due to excessive tumor volumes.
Data shown are mean tumor volume±SEM (n=8 per group). Red filled circles are VE-822 treatment; Black filled squares are vehicle treatment; Green filled circles are gemcitabine treatment; Blue filled circles are gemcitabine and VE-822 (10 mg/kg) treatment; Red filled circles are gemcitabine and VE-822 (30 mg/kg) treatment; Pink filled circles are gemcitabine and VE-822 (60 mg/kg) treatment;

Row | SMILES | radiosensitisation under hypoxic conditions (clonogenic survival) ([1]; 1 μM VE-821, hypoxia 0.5% O2, FIG. 2 panels A-B) | sensitisation to gemcitabine (clonogenic survival) ([1]; 1 μM VE-821 for 72 h after 24 h gemcitabine, oxic and hypoxic (0.5% O2), FIG. 3 panels B-C) | potentiation of chemoradiation (clonogenic survival) ([1]; PSN-1 and MiaPaCa-2, 5 or 10 nM gemcitabine, 1 μM VE-821, 4 Gy, FIG. 3 panel D) | surviving fraction after irradiation ([1]; PSN-1 cells, 1 μM VE-821, 4 Gy, effect increased as drug incubation time after irradiation was extended, FIG. 1 panel C) | antitumor effects of cisplatin (tumor volume) [2] | antitumor effects of gemcitabine (tumor volume) [3]
1 | CS(=O)(=O)c1ccc(-c2cnc(N)c(C(=O)Nc3ccccc3)n2)cc1 [VE-821] | radiosensitises tumour PSN-1, MiaPaCa-2 and PancM cells under hypoxic conditions | sensitises normoxic and hypoxic cancer cells to gemcitabine | potentiates the effect of chemoradiation | a decrease in surviving fraction was observed |  | 
2 | CNCc1ccc(-c2cc(-c3nc(-c4ccc(S(=O)(=O)C(C)C)cc4)cnc3N)on2)cc1 [VE-822] |  |  |  |  | enhances the antitumor effects of cisplatin | enhances the antitumor effects of gemcitabine
